# Assay results: patent publication US20250387400A1, “TYK2 INHIBITORS” (BIOGEN MA INC., priority 2022, published 2025)
# Structures can show the parent of a compound that is named as a salt. Where two headings read alike, the source gives them in different places.
# Tests used:
# Format in all cases: biochemical
# [1] = target: T1, catalytic kinase (JH1) domain of human TYK2 (Homo sapiens, UniProt P29597); test: ADP-Glo kinase assay, TYK2 kinase domain
# T1 construct: recombinantly generated catalytic kinase (also known as JH1) domain of human JAK1, JAK2, JAK3 and TYK2
# T1 sequence (P29597 897-1176 limits assumed): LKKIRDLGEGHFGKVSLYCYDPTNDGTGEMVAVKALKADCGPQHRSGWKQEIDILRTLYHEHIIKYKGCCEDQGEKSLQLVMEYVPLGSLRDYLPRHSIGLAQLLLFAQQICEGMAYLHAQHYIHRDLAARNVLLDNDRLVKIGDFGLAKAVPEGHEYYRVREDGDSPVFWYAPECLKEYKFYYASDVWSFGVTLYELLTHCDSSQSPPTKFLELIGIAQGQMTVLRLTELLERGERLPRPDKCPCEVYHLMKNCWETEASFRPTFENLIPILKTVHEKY
# Protocol: (§1) As summarized in Table 3 below, compounds of the disclosure were assessed for their ability to inhibit TYK2, JAK1, JAK2, and JAK3 activity.
# (§2) The kinase activity of recombinantly generated catalytic kinase (also known as JH1) domain of human JAK1, JAK2, JAK3 and TYK2 were evaluated in a plate-based assay using the ADP-Glo™ Kinase Assay platform. […] The reactions proceed for 100 minutes and the catalytic activity is quantified by first depleting the unused ATP, converting the hydrolyzed ADP into ATP to generate luminescence in a luciferase reaction; which is the basis of the ADP-Glo platform. Compounds are tested at either 10 μM or 1 μM top concentration, 11 points of 3-fold dilution. The data is normalized and the percent activity versus log concentration of compound is fitted with a 4-parameter logistic model to generate a curve and an IC50 value.
# [2] = target: T2, catalytic kinase (JH1) domain of human JAK3 (Homo sapiens, UniProt P52333); test: ADP-Glo kinase assay, JAK3 kinase domain
# T2 construct: Catalytic activities of recombinant JAK2, JAK3 and TYK2 kinase domain
# Protocol: as §1, §2
# [3] = target: T3, catalytic kinase (JH1) domain of human JAK2 (Homo sapiens, UniProt O60674); test: ADP-Glo kinase assay, JAK2 kinase domain
# T3 construct: Catalytic activities of recombinant JAK2, JAK3 and TYK2 kinase domain
# Protocol: as §1, §2
# [4] = target: T4, catalytic kinase (JH1) domain of human JAK1 (Homo sapiens, UniProt P23458); test: ADP-Glo kinase assay, JAK1 kinase domain
# T4 construct: 4 nM of recombinant JAK1 kinase domain is used to phosphorylate
# Protocol: as §1, §2
# [5] = 2 nM recombinant TYK2 kinase domain, 50 μM JAK3-974 peptide, 10 μM ATP, 100 minutes, read-out: TYK2 biochem IC50 (nM) Mean
# [6] = 0.3 nM recombinant JAK3 kinase domain, 50 μM JAK3-974 peptide, 4 μM ATP, 100 minutes, read-out: JAK3 biochem IC50 (nM) Mean
# [7] = 0.2 nM recombinant JAK2 kinase domain, 50 μM JAK3-974 peptide, 15 μM ATP, 100 minutes, read-out: JAK2 biochem IC50 (nM) Mean
# [8] = 4 nM recombinant JAK1 kinase domain, 50 μM JAK3-342 peptide, 35 μM ATP, 100 minutes, read-out: JAK1 biochem IC50 (nM) Mean
# T3 sequence (O60674 849-1124 limits assumed): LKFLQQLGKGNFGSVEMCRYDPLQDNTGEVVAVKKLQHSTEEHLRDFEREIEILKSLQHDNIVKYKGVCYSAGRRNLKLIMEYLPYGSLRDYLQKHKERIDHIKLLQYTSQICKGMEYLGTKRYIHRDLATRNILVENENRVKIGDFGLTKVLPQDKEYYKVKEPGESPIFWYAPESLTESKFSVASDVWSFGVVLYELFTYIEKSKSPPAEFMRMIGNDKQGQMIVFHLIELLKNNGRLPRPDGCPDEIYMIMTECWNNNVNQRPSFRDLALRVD
# T2 sequence (P52333 822-1111 limits assumed): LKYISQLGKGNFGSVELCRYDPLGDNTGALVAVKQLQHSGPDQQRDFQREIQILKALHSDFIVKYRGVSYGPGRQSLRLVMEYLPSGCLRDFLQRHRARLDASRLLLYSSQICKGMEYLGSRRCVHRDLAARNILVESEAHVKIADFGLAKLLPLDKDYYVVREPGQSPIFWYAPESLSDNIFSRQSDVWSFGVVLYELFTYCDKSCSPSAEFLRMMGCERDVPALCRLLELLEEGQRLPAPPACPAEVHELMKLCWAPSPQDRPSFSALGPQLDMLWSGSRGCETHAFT
# T4 sequence (P23458 875-1153 limits assumed): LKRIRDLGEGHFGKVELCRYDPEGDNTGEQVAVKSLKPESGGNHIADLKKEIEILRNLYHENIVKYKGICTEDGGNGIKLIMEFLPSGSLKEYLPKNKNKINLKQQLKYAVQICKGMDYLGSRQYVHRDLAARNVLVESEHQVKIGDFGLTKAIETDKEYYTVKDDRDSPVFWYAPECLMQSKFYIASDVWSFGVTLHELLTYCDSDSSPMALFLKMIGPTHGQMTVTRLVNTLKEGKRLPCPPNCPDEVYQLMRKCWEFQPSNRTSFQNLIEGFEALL
Structure (SMILES),"IC50 [1, 5] [nM]","IC50 [2, 6] [nM]","IC50 [3, 7] [nM]","IC50 [4, 8] [nM]",IC50 [1] [nM],IC50 [2] [nM],IC50 [3] [nM],IC50 [4] [nM]
"COC[C@]1(C#N)C[C@@H](N2C3CCC2CN(c2ccnn4cc(-c5cnn(C)c5)cc24)C3)C1 [Example 43, (1r,3r)-1-(methoxymethyl)-3-(3-(6-(1-methyl-1H-pyrazol-4-yl)pyrrolo[1,2-b]pyridazin-4-yl)-3,8-diazabicyclo[3.2.1]octan-8-yl)cyclobutane-1-carbonitrile]",3.7,260,39,73,–,–,–,–
"COCC[C@]1(C#N)C[C@H](N2C3CCC2CN(c2ccnn4cc(-c5cnn(C)c5)cc24)C3)C1 [Example 38, (1r,3r)-1-(2-methoxyethyl)-3-(3-(6-(1-methyl-1H-pyrazol-4-yl)pyrrolo[1,2-b]pyridazin-4-yl)-3,8-diazabicyclo[3.2.1]octan-8-yl)cyclobutane-1-carbonitrile]",185,7300,1100,1400,–,–,–,–
"Cn1cc(-c2cc3c(N4CC5CCC(C4)N5[C@H]4C[C@H](CC#N)C4)ccnn3c2)cn1 [Example 45, 2-((1r,3r)-3-(3-(6-(1-methyl-1H-pyrazol-4-yl)pyrrolo[1,2-b]pyridazin-4-yl)-3,8-diazabicyclo[3.2.1]octan-8-yl)cyclobutyl)acetonitrile]",195,9400,2700,2400,–,–,–,–
"COc1cc(-c2cc3c(N4CC5CCC(C4)N5[C@H]4C[C@H](C#N)C4)ccnc3[nH]2)ccn1 [Example 15, (1R,3r)-3-(3-(2-(2-methoxypyridin-4-yl)-1H-pyrrolo[2,3-b]pyridin-4-yl)-3,8-diazabicyclo[3.2.1]octan-8-yl)cyclobutane-1-carbonitrile]",–,–,–,–,2.13,74.3,15,13.7
"COC[C@]1(C#N)C[C@H](N2C3CCC2CN(c2ccnn4cc(-c5cnn(C)c5)cc24)C3)C1 [Example 42, (1s,3s)-1-(methoxymethyl)-3-(3-(6-(1-methyl-1H-pyrazol-4-yl)pyrrolo[1,2-b]pyridazin-4-yl)-3,8-diazabicyclo[3.2.1]octan-8-yl)cyclobutane-1-carbonitrile]",100,2400,400,675,–,–,–,–
"Cc1cc(-c2cc3c(N4CC5CCC(C4)N5[C@H]4C[C@@H](C#N)C4)ccnn3c2)on1 [Example 59, (1S,3s)-3-(3-(6-(3-methylisoxazol-5-yl)pyrrolo[1,2-b]pyridazin-4-yl)-3,8-diazabicyclo[3.2.1]octan-8-yl)cyclobutane-1-carbonitrile]",–,–,–,–,4.25,220,26,65.5
"Cn1cc(-c2nc3c(N4CC5CCC(C4)N5C4CNC4)ccnc3[nH]2)cn1 [Example 11, 7-(8-(azetidin-3-yl)-3,8-diazabicyclo[3.2.1]octan-3-yl)-2-(1-methyl-1H-pyrazol-4-yl)-3H-imidazo[4,5-b]pyridine hydrochloride]",330,> 5000,635,970,–,–,–,–
"Cn1cc(-c2cc3c(N4CC5CCC(C4)N5C4CCC4)ccnn3c2)cn1 [Example 26, 4-(8-cyclobutyl-3,8-diazabicyclo[3.2.1]octan-3-y1)-6-(1-methyl-1H-pyrazol-4-yl)pyrrolo[1,2-b]pyridazine]",–,–,–,–,195,> 10000,3300,6100
"Cn1cc(-c2cc3c(N4CC5CCC(C4)N5[C@H]4CCC45COC5)ccnn3c2)cn1 (single isomer, unassigned) [Example 40]",–,–,–,–,320,> 10000,1900,> 10000
"Cn1cc(-c2cc3c(N4CC5CCC(C4)N5C4CC(O)C4)ccnn3c2)cn1 (centres unmarked) [Example 25, 3-(3-(6-(1-methyl-1H-pyrazol-4-yl)pyrrolo[1,2-b]pyridazin-4-yl)-3,8-diazabicyclo[3.2.1]octan-8-yl)cyclobutan-1-ol]",435,> 10000,5050,6250,–,–,–,–
"Cn1cc(-c2cc3c(N4CC5CCC(C4)N5[C@H]4C[C@@H](O)C4)ccnn3c2)cn1 [Example 32, (1S,3s)-3-(3-(6-(1-methyl-1H-pyrazol-4-yl)pyrrolo[1,2-b]pyridazin-4-yl)-3,8-diazabicyclo[3.2.1]octan-8-yl)cyclobutan-1-ol]",460,> 10000,6300,> 10000,–,–,–,–

# More lines, in order of falling IC50 [1, 5], values ahead:
"IC50 [1, 5] [nM]","IC50 [2, 6] [nM]","IC50 [3, 7] [nM]","IC50 [4, 8] [nM]",Structure (SMILES),IC50 [1] [nM],IC50 [2] [nM],IC50 [3] [nM],IC50 [4] [nM]
610,> 10000,3300,> 10000,"Cn1cc(-c2nc3c(N4CC5CCC(C4)N5[C@H]4CC[C@@H]4O)ccnc3[nH]2)cn1 (single isomer, unassigned) [Example 7, (1RS,2RS)-2-(3-(2-(1-methyl-1H-pyrazol-4-yl)-3H-imidazo[4,5-b]pyridin-7-yl)-3,8-diazabicyclo[3.2.1]octan-8-yl)cyclobutan-1-ol]",–,–,–,–
580,> 10000,2300,2850,"CN1CC(N2C3CCC2CN(c2ccnc4[nH]c(-c5cnn(C)c5)nc24)C3)C1 [Example 12, 2-(1-methyl-1H-pyrazol-4-yl)-7-(8-(1-methylazetidin-3-yl)-3,8-diazabicyclo[3.2.1]octan-3-yl)-3H-imidazo[4,5-b]pyridine trifluoroacetate]",–,–,–,–
367,> 10000,4670,> 10000,"CO[C@H]1C[C@@H](N2C3CCC2CN(c2ccnn4cc(-c5cnn(C)c5)cc24)C3)C1 [Example 30, 4-(8-((1s,3S)-3-methoxycyclobutyl)-3,8-diazabicyclo[3.2.1]octan-3-yl)-6-(1-methyl-1H-pyrazol-4-yl)pyrrolo[1,2-b]pyridazine]",–,–,–,–
226,1350,180,340,"Cn1cc(-c2nc3c(N4C[C@H]5CC[C@@H](C4)N5C4CC(C(F)F)C4)ccnc3[nH]2)cn1 (stereo partly drawn) [Example 10, 7-((1R,5S)-8-(3-(difluoromethyl)cyclobutyl)-3,8-diazabicyclo[3.2.1]octan-3-yl)-2-(1-methyl-1H-pyrazol-4-yl)-3H-imidazo[4,5-b]pyridine]",–,–,–,–
187,> 10000,3600,6500,"CO[C@H]1C[C@H](N2C3CCC2CN(c2ccnn4cc(-c5cnn(C)c5)cc24)C3)C1 [Example 29, 4-(8-((1r,3R)-3-methoxycyclobutyl)-3,8-diazabicyclo[3.2.1]octan-3-yl)-6-(1-methyl-1H-pyrazol-4-yl)pyrrolo[1,2-b]pyridazine]",–,–,–,–
44,1450,236,430,"Cn1cc(-c2nc3c(N4CC5CCC(C4)N5[C@H]4C[C@H](C#N)C4)ccnc3[nH]2)cn1 [Example 3, (1R,3r)-3-(3-(2-(1-methyl-1H-pyrazol-4-yl)-3H-imidazo[4,5-b]pyridin-7-yl)-3,8-diazabicyclo[3.2.1]octan-8-yl)cyclobutane-1-carbonitrile]",–,–,–,–
41.5,205,260,340,"Cn1cc(-c2cc3c(N4CC5CCC(C4)N5[C@H]4C[C@@H](C#N)C4)ncnc3[nH]2)cn1 [Example 64, (1S,3s)-3-(3-(6-(1-methyl-1H-pyrazol-4-yl)-7H-pyrrolo[2,3-d]pyrimidin-4-yl)-3,8-diazabicyclo[3.2.1]octan-8-yl)cyclobutane-1-carbonitrile]",–,–,–,–
40.5,1400,265,520,"Cn1cc(-c2cc3c(N4CC5CCC(C4)N5C4(CC#N)COC4)ccnn3c2)cn1 [Example 20, 2-(3-(3-(6-(1-methyl-1H-pyrazol-4-yl)pyrrolo[1,2-b]pyridazin-4-yl)-3,8-diazabicyclo[3.2.1]octan-8-yl)oxetan-3-yl)acetonitrile]",–,–,–,–
13.4,850,102,175,"Cn1cc(-c2nc3c(N4CC5CCC(C4)N5[C@H]4C[C@](C)(C#N)C4)ccnc3[nH]2)cn1 [Example 1, (1R,3r)-1-methyl-3-(3-(2-(1-methyl-1H-pyrazol-4-yl)-3H-imidazo[4,5-b]pyridin-7-yl)-3,8-diazabicyclo[3.2.1]octan-8-yl)cyclobutane-1-carbonitrile]",–,–,–,–
